Type in all cases: in vivo
In assay [1] the test system is ragweed (common ragweed, Ambrosia artemisiifolia). Kind of assay: Test A postemergence, ragweed. The following applies: post-emergence, 240 h, 0 to 100 scale, 10 days, read-out: Plant response rating, Ragweed. An excerpt:
(§1) Seeds of plant species selected from barnyardgrass (Echinochloa crus-galli), blackgrass (Alopecurus myosuroides), corn (Zea mays), foxtail, giant (giant foxtail, Setaria faberi), goosegrass (Eleusine indica), kochia (Bassia scoparia), oat, wild (wild oat, Avena fatua), pigweed, palmer (palmer amaranth, Amaranthus palmeri), pigweed, redroot (redroot pigweed, Amaranthus retroflexus), ragweed (common ragweed, Ambrosia artemisiifolia), ryegrass, Italian (Italian ryegrass, Lolium multiflorum), soybean (Glycine max), and wheat (Triticum aestivum) were planted into a blend of loam soil and sand and treated preemergence with a directed soil spray using test chemicals formulated in a non-phytotoxic solvent mixture which included a surfactant.
(§2) At the same time, plants selected from these crop and weed species and also galium (catchweed bedstraw, Galium aparine) and horseweed (Erigeron canadensis) were planted in pots containing the same blend of loam soil and sand and treated with postemergence applications of test chemicals formulated in the same manner. Plants ranged in height from 2 to 10 cm and were in the one- to two-leaf stage for the postemergence treatment. Treated plants and untreated controls were maintained in a greenhouse for 10 days, after which time all treated plants were compared to untreated controls and visually evaluated for injury. Plant response ratings, summarized in Table A, are based on a 0 to 100 scale where 0 is no effect and 100 is complete control. A dash (-) response means no test result.

In assay [2] the test system is pigweed, palmer (palmer amaranth, Amaranthus palmeri). In words: Test A preemergence, palmer amaranth. The following applies: 0 to 100 scale, 10 days.
Excerpt: as §1, §2

Assay [3] has as its system ryegrass, Italian (Italian ryegrass, Lolium multiflorum). In words: Test A preemergence, Italian ryegrass. The following applies: pre-emergence, 240 h, 0 to 100 scale, 10 days, read-out: Plant response rating, Ryegrass, Italian.
Excerpt: as §1, §2

Assay [4] has as its system foxtail, giant (giant foxtail, Setaria faberi). In words: Test A postemergence, giant foxtail. The following applies: post-emergence, 240 h, 0 to 100 scale, 10 days, read-out: Plant response rating, Foxtail, Giant.
Excerpt: as §1, §2

Assay [5] shares this test system. In words: Test A preemergence, giant foxtail. The following applies: pre-emergence, 240 h, 0 to 100 scale, 10 days, read-out: Plant response rating, Foxtail, Giant.
Excerpt: as §1, §2

Assay [6] deals with soybean (Glycine max). Kind of assay: Test A postemergence, soybean. The following applies: 0 to 100 scale, 10 days.
Excerpt: as §1, §2

Another assay relates to kochia (Bassia scoparia). In words: Test A preemergence, kochia. The following applies: pre-emergence, 240 h, 0 to 100 scale, 10 days, read-out: Plant response rating, Kochia.
Excerpt: as §1, §2

Assay [7] has as its system pigweed, palmer (palmer amaranth, Amaranthus palmeri). Kind of assay: Test A postemergence, palmer amaranth. The following applies: 0 to 100 scale, 10 days.
Excerpt: as §1, §2

Assay [8] deals with soybean (Glycine max). Kind of assay: Test A preemergence, soybean. The following applies: 0 to 100 scale, 10 days.
Excerpt: as §1, §2

Another assay deals with rice (Oryza sativa). Kind of assay: Test B flooded paddy test, rice. The following applies: 250 g ai/ha, Flood, scale of 0 to 100 where 0 is no effect and 100 is complete control, visually evaluated after 10 to 14 days, read-out: Plant response rating, Rice. The method, then: Plant species in the flooded paddy test selected from barnyardgrass (Echinochloa crusgalli), ducksalad (Heteranthera limosa), rice (Oryza sativa), and sedge, umbrella (small-flower umbrella sedge, Cyperus difformis) were grown to the 2-leaf stage for testing. At time of treatment, test pots were flooded to 3 cm above the soil surface, treated by application of test compounds directly to the paddy water, and then maintained at that water depth for the duration of the test. Treated plants and controls were maintained in a greenhouse for 10 to 14 days, after which time all species were compared to controls and visually evaluated. Plant response ratings, summarized in Table B, are based on a scale of 0 to 100 where 0 is no effect and 100 is complete control. A dash (-) response means no test result.

From patent publication US20240158348A1, “HERBICIDAL CYCLIC AMIDES N-SUBSTITUTED WITH A HALOALKYLSULFONYLANILIDE GROUP” (FMC Corporation, priority 2021, published 2024) come the findings set out here.

Regarding `Cc1cc(C)c(N(COC(=O)C(C)(C)C)S(=O)(=O)C(F)(F)F)cc1N1CCC(OC2CCC2)C1=O` (stereo not shown) [Compound 8, [[5-[3-(cyclobutyloxy)-2-oxo-1-pyrrolidinyl]-2,4-dimethylphenyl][(trifluoromethyl)sulfonyl]amino]methyl 2,2-dimethylpropanoate], the pest or weed control at 31 g/ha in assay [1] (31 g ai/ha) stood at 70%; in [3] (31 g ai/ha), 50%; in assay [4] (31 g ai/ha) it was 30%; in assay [5] (31 g ai/ha) it was 90%; in the assay with kochia (Bassia scoparia) (31 g ai/ha), 0%. Also, the pest or weed control at 125 g/ha in [1] (125 g ai/ha) worked out at 90%; in [3] (125 g ai/ha) it was 90%; in assay [4] (125 g ai/ha), 80%; in [5] (125 g ai/ha) it was 100%; in the assay with kochia (Bassia scoparia) (125 g ai/ha), 100%. Further, the “Plant response rating, Pigweed, Palmer” value in [2] (31 g ai/ha) was found to be 30; in assay [2] (125 g ai/ha) it was 90; in assay [7] (31 g ai/ha) it was 60; in [7] (125 g ai/ha), 90. Moreover, the “Plant response rating, Soybean” value worked out at 60 with soybean (Glycine max) [6] (31 g ai/ha), 90 in the assay on soybean (Glycine max) [6] (125 g ai/ha), 40 with soybean (Glycine max) [8] (31 g ai/ha) and 50 in the assay with soybean (Glycine max) [8] (125 g ai/ha). For the same compound, the plant injury at 250 g/ha with rice (Oryza sativa) stood at 35%.
